According to the NIST ThermoML archive (doi:10.1021/je050416y):
± gives the expanded uncertainty stated by the source.

Experiment: xn = mol fraction of the nth substance listed
Conditions: 101 kPa, Liquid; for mass density: Vibrating tube method

CCC(C)CO (stereo unspecified) [2-methyl-1-butanol] + CCO
Conditions	kinematic viscosity, 293.15 K [m2/s]	kinematic viscosity, 298.15 K [m2/s]	kinematic viscosity, 303.15 K [m2/s]	mass density, 293.15 K [kg/m3]	mass density, 298.15 K [kg/m3]	mass density, 303.15 K [kg/m3]	mass density, 308.15 K [kg/m3]
x1 = 0.0268	–	–	–	790.9 ± 1	786.6 ± 1	782.3 ± 1	778 ± 1
x1 = 0.0549	–	–	–	792.1 ± 1	787.9 ± 1	783.7 ± 1	779.4 ± 1
x1 = 0.0845	–	–	–	793.4 ± 1	789.2 ± 1	785 ± 1	780.9 ± 1
x1 = 0.0915	1.66e-06 ± 7.8e-08	1.5e-06 ± 7.1e-08	1.32e-06 ± 6.3e-08	–	–	–	–
x1 = 0.1156	–	–	–	794.7 ± 1	790.6 ± 1	786.4 ± 1	782.3 ± 1
x1 = 0.1484	–	–	–	795.9 ± 1	791.9 ± 1	787.8 ± 1	783.8 ± 1
x1 = 0.1753	1.8e-06 ± 8.3e-08	1.61e-06 ± 7.6e-08	1.41e-06 ± 6.7e-08	–	–	–	–
x1 = 0.183	–	–	–	797.2 ± 1	793.2 ± 1	789.2 ± 1	785.2 ± 1
x1 = 0.2524	1.92e-06 ± 8.9e-08	1.71e-06 ± 8e-08	1.5e-06 ± 7.1e-08	–	–	–	–
x1 = 0.2584	–	–	–	799.9 ± 1	796 ± 1	792 ± 1	788.1 ± 1
x1 = 0.3235	2.04e-06 ± 9.4e-08	1.82e-06 ± 8.4e-08	1.59e-06 ± 7.4e-08	–	–	–	–
x1 = 0.3433	–	–	–	802.7 ± 1	798.8 ± 1	795 ± 1	791.2 ± 1
x1 = 0.3894	2.17e-06 ± 9.9e-08	1.93e-06 ± 8.9e-08	1.68e-06 ± 7.9e-08	–	–	–	–
x1 = 0.4395	–	–	–	805.5 ± 1	801.8 ± 1	798 ± 1	794.3 ± 1
x1 = 0.4505	2.32e-06 ± 1.1e-07	2.06e-06 ± 9.5e-08	1.8e-06 ± 8.4e-08	–	–	–	–
x1 = 0.5495	–	–	–	808.4 ± 1	804.8 ± 1	801.1 ± 1	797.5 ± 1
x1 = 0.5605	2.67e-06 ± 1.2e-07	2.36e-06 ± 1.1e-07	2.06e-06 ± 9.5e-08	–	–	–	–
x1 = 0.6567	3.06e-06 ± 1.4e-07	2.69e-06 ± 1.2e-07	2.35e-06 ± 1.1e-07	–	–	–	–
x1 = 0.6765	–	–	–	811.4 ± 1	807.9 ± 1	804.2 ± 1	800.7 ± 1
x1 = 0.7416	3.47e-06 ± 1.5e-07	3.04e-06 ± 1.4e-07	2.66e-06 ± 1.2e-07	–	–	–	–
x1 = 0.817	3.92e-06 ± 1.7e-07	3.43e-06 ± 1.5e-07	3e-06 ± 1.3e-07	–	–	–	–
x1 = 0.8247	–	–	–	814.5 ± 1	811 ± 1	807.4 ± 1	803.9 ± 1
x1 = 0.8844	4.45e-06 ± 2e-07	3.89e-06 ± 1.7e-07	3.41e-06 ± 1.5e-07	–	–	–	–
x1 = 0.9451	5.14e-06 ± 2.2e-07	4.49e-06 ± 2e-07	3.94e-06 ± 1.7e-07	–	–	–	–
x1 = 1	6.11e-06 ± 2.5e-07	5.34e-06 ± 2.3e-07	4.69e-06 ± 2e-07	817.6 ± 1	814.1 ± 1	810.5 ± 1	807.1 ± 1
